The target in data set [1] is T1, CYP2A6 (commercial, Vivid kit Baculosomes) (Homo sapiens, UniProt P11509).
T1 sequence (P11509 1-494): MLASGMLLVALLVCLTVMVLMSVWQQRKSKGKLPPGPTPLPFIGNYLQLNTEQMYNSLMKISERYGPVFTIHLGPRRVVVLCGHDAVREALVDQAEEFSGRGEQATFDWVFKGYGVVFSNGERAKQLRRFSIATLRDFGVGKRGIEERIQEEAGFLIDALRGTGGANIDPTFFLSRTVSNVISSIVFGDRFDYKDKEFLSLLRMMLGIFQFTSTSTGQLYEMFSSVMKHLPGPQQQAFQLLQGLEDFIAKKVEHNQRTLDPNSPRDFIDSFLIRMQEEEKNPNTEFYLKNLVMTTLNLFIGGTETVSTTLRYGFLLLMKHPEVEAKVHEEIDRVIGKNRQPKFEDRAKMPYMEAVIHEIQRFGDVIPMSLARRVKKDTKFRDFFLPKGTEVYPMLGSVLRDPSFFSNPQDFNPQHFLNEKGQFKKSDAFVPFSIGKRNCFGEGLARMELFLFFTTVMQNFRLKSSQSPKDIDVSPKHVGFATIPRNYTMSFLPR
The data set is described as follows: fluorescent 3-cyano coumarin turnover, Morrison tight-binding fit. It counts as biochemical.

Substrate in the data set “purified protein”: N#Cc1cc2ccccc2oc1=O
The data set is described as follows: purified protein. It counts as biochemical, Homo sapiens. As to conditions: 10 nM CYP2A6, 30 μM NADPH, 0.25-32 μM substrate.

In turn, `CCCCCC(O)/C=C/C=O` (centres unmarked) [HNE] registered an inhibitory constant (Ki) in data set [1] of 208 ± 35.4 µM.

B1: CYP2A6 (commercial, Vivid kit Baculosomes) (Homo sapiens) (protein)
chain: T1 sequence (P11509 1-494)
For the molecule B1, the Michaelis constant (Km) in “purified protein” turned out to be 12 ± 6 µM.

What is called Ki is the equilibrium dissociation constant of an inhibitor or competing ligand from its target. A lower Ki goes with higher affinity. As a reminder, the Km is the concentration of substrate that gives half-maximal velocity.

For the origin of these results see doi:10.1101/2024.09.27.615266v1 (biorxiv, 2024).
